According to patent US20220378706A1, “PHARMACEUTICAL COMPOSITION COMPRISING PDE9 INHIBITOR” (Eisai R&D Management Co., Ltd., priority 2017, published 2022):
Several values for one entry are separate records, joined by “and”; a condition that tells them apart may be missing. Identical values can stand only once. Like-named read-outs stand apart in the source and are kept apart here.

Experiment: Single dose clinical study: plasma Compound A pharmacokinetics
Type: in vivo, human
Details: for AUC(0-inf) / Cmax / Vd/F / half-life / Tmax / AUC(0-t): human, po; for AUC(0-inf): read-out: AUC(0-inf) GM; for Tmax: read-out: tmax Median; for tlag Median (Min, Max): Part B 100 mg cohort
Method: This was a single center, single dose, randomized, double blind, placebo controlled study in healthy subjects. It consisted of 4 parts: Parts A, B, C, and D. Each of the four study parts had 2 phases: Prerandomization Phase and Randomization Phase. The Prerandomization Phase lasted up to 30 days and consisted of a Screening Period and a Baseline Period, during which each subject's study eligibility was determined and baseline assessments were performed.
In Part A, there were 8 sequential cohorts of healthy adult subjects (18-50 years of age). Subjects were randomly assigned to Compound A or placebo in a ratio of 6:2, respectively. Subjects in the Compound A cohorts were treated with single ascending doses of 10, 25, 50, 100, 200, 400, 800, or 1200 mg.
In Part B, there were 4 cohorts of healthy adult subjects (18-50 years of age). There were 8 subjects in Cohort 1, with 6 subjects randomly assigned to receive single doses of Compound A (400 mg) and 2 subjects randomly assigned to receive placebo. There were 7 subjects in Cohort 2 and Cohort 3, each with 6 subjects randomly assigned to receive single doses of Compound A (100 and 200 mg, respectively) and 1 subject randomly assigned to receive placebo. The dose of 100 mg selected in Cohort 2 was based on preliminary analysis of Cohort 1 data; this dose was predicted from PK/PD modeling to achieve a sustained CSF cGMP increase from baseline of approximately 200% when administered to steady state, and thereby provided a potentially therapeutic dose for further evaluation in future studies. There were 7 subjects in Cohort 4, with 6 subjects randomly assigned to receive a single dose of Compound A (50 mg [n=3] or 75 mg [n=3]) and 1 subject randomly assigned to receive placebo. The doses for Cohorts 3 and 4 were selected based on PK/PD modeling of the data in Cohorts 1 and 2.
Subjects in Cohort 2 who had received Compound A 100 mg or placebo under fasted conditions (1st Treatment Period) also participated in an evaluation of food effect on the PK of Compound A (2nd Treatment Period). After a washout period of at least 13 days (or 5 half-lives of Compound A, whichever was longer), subjects were admitted to the clinic for baseline assessments (2nd Baseline Period) and then received a single dose of the same treatment (Compound A 100 mg or placebo) after consuming a high fat and high calorie meal over 30 minutes. Blood PK samples were collected at prespecified time points. Safety evaluations were also assessed. CSF was not collected for PD evaluation during the 2nd Treatment Period. A Follow Up Visit occurred on Day 10 of Treatment Period 2.
In Part C, there was 1 cohort of 8 healthy elderly subjects (65 to 85 years of age) randomly assigned to receive a single dose of Compound A 100 mg or placebo in a ratio of 6:2, respectively.
In Part D, 3 cohorts of healthy adult Japanese subjects were randomized in parallel. There were 7 subjects in each cohort and subjects were randomly assigned to receive single doses of Compound A (25, 100, or 400 mg) or placebo in a ratio of 6:1, respectively.
Blood samples for determination of plasma Compound A concentrations were collected from predose to 216 hours postdose. On Day 1, blood PK samples were collected at predose and postdose 0.5 (30 minutes), 1, 1.5, 2, 3, 4, 5, 6, 8, 12, and 18 hours. Thereafter, samples were collected on Day 2 (24 and 36 hours postdose), Day 3 (48 hours postdose), Day 4 (72 hours postdose), Day 5 (96 hours postdose), Day 6 (120 hours postdose), Day 7 (144 hours postdose), and Day 10 (216 hours postdose).
Blood samples for determination of plasma Compound A concentrations were collected from predose to 216 hours postdose. For all cohorts, blood PK samples were collected on Day 1 at predose and postdose at 0.5 (30 minutes), 1, 1.5, 2, 3, 4, 5, 6, 8, 10, 12, and 18 hours. […]

[1] = plasma, 400 mg, plasma, Non-Japanese Subjects (Parts A,B), single oral 400 mg
[2] = plasma, 400 mg, plasma, healthy adults (Parts A,B), single oral 400 mg, fasted
[3] = plasma, 800 mg, plasma, healthy adults (Parts A,B), single oral 800 mg, fasted
[4] = plasma, 1200 mg, plasma, healthy adults (Parts A,B), single oral 1200 mg, fasted
[5] = plasma, healthy adults (Parts A,B), single oral 10 mg, fasted
[6] = plasma, healthy adults (Parts A,B), single oral 25 mg, fasted
[7] = plasma, healthy adults (Parts A,B), single oral 50 mg, fasted
[8] = plasma, healthy adults (Parts A,B), single oral 75 mg, fasted
[9] = plasma, healthy adults (Parts A,B), single oral 100 mg, fasted
[10] = plasma, healthy adults (Parts A,B), single oral 200 mg, fasted
[11] = plasma, healthy adults (Parts A,B), single oral 400 mg, fasted
[12] = plasma, healthy adults (Parts A,B), single oral 800 mg, fasted
[13] = plasma, healthy adults (Parts A,B), single oral 1200 mg, fasted

Structure (SMILES): COc1ncc(C)c(-c2ccc3c(c2)[nH]c(=O)c2cnn([C@H]4CCOC4)c23)c1C [Compound A, (S)-7-(2-methoxy-3,5-dimethylpyridin-4-yl)-1-(tetrahydrofuran-3-yl)-1H-pyrazolo[4,3-c]quin olin-4(5H)-one]
- AUC(0-inf) [1]: 35800 ng·h/mL
- Cmax (plasma, 400 mg, plasma, Non-Japanese Subjects (Parts A,B), single oral 400 mg, read-out: Cmax GM (% CV)): 827 ng/mL
- Vd/F (plasma, 400 mg, plasma, Non-Japanese Subjects (Parts A,B), single oral 400 mg, read-out: Vz/F GM (% CV)): 511 L
- half-life (plasma, 400 mg, plasma, Non-Japanese Subjects (Parts A,B), single oral 400 mg, read-out: t1/2 Mean (SD) (converted)): 34.5 h
- Tmax [1]: 3 h
- AUC(0-t) (plasma, 400 mg, plasma, healthy adults (Parts A,B), single oral 400 mg, fasted, read-out: AUC(0-24 h) GM): 12500 ng·h/mL
- AUC(0-t) (plasma, 400 mg, plasma, healthy adults (Parts A,B), single oral 400 mg, fasted, read-out: AUC(0-30 h) GM): 15200 ng·h/mL
- AUC(0-t) (plasma, 400 mg, plasma, healthy adults (Parts A,B), single oral 400 mg, fasted, read-out: AUC(0-72 h) GM): 27000 ng·h/mL
- AUC(0-inf) [2]: 36300 ng·h/mL
- AUC(0-t) (plasma, 400 mg, plasma, healthy adults (Parts A,B), single oral 400 mg, fasted, read-out: AUC(0-t) GM): 35500 ng·h/mL
- Cmax (plasma, 400 mg, plasma, healthy adults (Parts A,B), single oral 400 mg, fasted, read-out: Cmax GM): 880 ng/mL
- Vd/F (plasma, 400 mg, plasma, healthy adults (Parts A,B), single oral 400 mg, fasted, read-out: Vz/F GM): 493 L
- half-life (plasma, 400 mg, plasma, healthy adults (Parts A,B), single oral 400 mg, fasted, read-out: t1/2 Mean (converted)): 33.2 h
- Tmax [2]: 2.5 h
- AUC(0-t) (plasma, 800 mg, plasma, healthy adults (Parts A,B), single oral 800 mg, fasted, read-out: AUC(0-24 h) GM): 29200 ng·h/mL
- AUC(0-t) (plasma, 800 mg, plasma, healthy adults (Parts A,B), single oral 800 mg, fasted, read-out: AUC(0-30 h) GM): 34500 ng·h/mL
- AUC(0-t) (plasma, 800 mg, plasma, healthy adults (Parts A,B), single oral 800 mg, fasted, read-out: AUC(0-72 h) GM): 54700 ng·h/mL
- AUC(0-inf) [3]: 65000 ng·h/mL
- AUC(0-t) (plasma, 800 mg, plasma, healthy adults (Parts A,B), single oral 800 mg, fasted, read-out: AUC(0-t) GM): 64300 ng·h/mL
- Cmax (plasma, 800 mg, plasma, healthy adults (Parts A,B), single oral 800 mg, fasted, read-out: Cmax GM): 2570 ng/mL
- Vd/F (plasma, 800 mg, plasma, healthy adults (Parts A,B), single oral 800 mg, fasted, read-out: Vz/F GM): 438 L
- half-life (plasma, 800 mg, plasma, healthy adults (Parts A,B), single oral 800 mg, fasted, read-out: t1/2 Mean (converted)): 25.2 h
- Tmax [3]: 3.55 h
- AUC(0-t) (plasma, 1200 mg, plasma, healthy adults (Parts A,B), single oral 1200 mg, fasted, read-out: AUC(0-24 h) GM): 28500 ng·h/mL
- AUC(0-t) (plasma, 1200 mg, plasma, healthy adults (Parts A,B), single oral 1200 mg, fasted, read-out: AUC(0-30 h) GM): 34800 ng·h/mL
- AUC(0-t) (plasma, 1200 mg, plasma, healthy adults (Parts A,B), single oral 1200 mg, fasted, read-out: AUC(0-72 h) GM): 60600 ng·h/mL
- AUC(0-inf) [4]: 79700 ng·h/mL
- AUC(0-t) (plasma, 1200 mg, plasma, healthy adults (Parts A,B), single oral 1200 mg, fasted, read-out: AUC(0-t) GM): 78400 ng·h/mL
- Cmax (plasma, 1200 mg, plasma, healthy adults (Parts A,B), single oral 1200 mg, fasted, read-out: Cmax GM): 1780 ng/mL
- Vd/F (plasma, 1200 mg, plasma, healthy adults (Parts A,B), single oral 1200 mg, fasted, read-out: Vz/F GM): 666 L
- half-life (plasma, 1200 mg, plasma, healthy adults (Parts A,B), single oral 1200 mg, fasted, read-out: t1/2 Mean (converted)): 31.9 h
- Tmax [4]: 3.02 h
- tlag Median (Min, Max) (plasma, single oral 100 mg, Fasted): 0 (0.00, 0.00) h
- tlag Median (Min, Max) (plasma, single oral 100 mg, Fed (high-fat meal)): 0.49 (0.00, 0.88) h
- CL/F GM [5]: 5.41 L/h
- tlag Median [5]: 0.50 h
- CL/F GM [6]: 5.76 L/h
- tlag Median [6]: 0.00 h
- CL/F GM [7]: 6.33 L/h
- tlag Median [7]: 0.00 h
- CL/F GM [8]: 7.57 L/h
- tlag Median [8]: 0.00 h
- AUC(0-inf) GM [9]: 15000 (20.0) h × ng/mL
- CL/F GM [9]: 6.66 L/h and 6.66 (20.1) L/h
- Cmax GM [9]: 373 (19.8) ng/mL
- t1/2 Mean [9]: 28.6 (6.73) h
- tlag Median [9]: 0.00 h
- CL/F GM [10]: 8.93 L/h
- tlag Median [10]: 0.00 h
- CL/F GM [11]: 11.0 L/h
- tlag Median [11]: 0.00 h
- CL/F GM [12]: 12.3 L/h
- tlag Median [12]: 0.00 h
- CL/F GM [13]: 15.1 L/h
- tlag Median [13]: 0.00 h
- time to quantifiable plasma concentrations postdose (most subjects) (single doses of 10 to 1200 mg): ≤ 0.5 h
